Measurements: US20250101063A1, “POLYPEPTIDE COMPOUND AND USE THEREOF IN TREATMENT OF ENTERITIS” (Sichuan Gooddoctor Panxi Pharmaceutical Co., Ltd., priority 2022, published 2025)
“Also recorded” adds a separate entry of the source.

How the values were obtained:
[1] = tested on: zebrafish model of intestinal mucosal injury; assay: Efficacy in relieving colitis: intestinal lumen area in TNBS-treated zebrafish; assay type: in vivo; conditions: for Intestinal lumen area (pixels, mean ± SE): 2 days after TNBS, n = 10
Procedure, shortened: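 TNBS in water for 2 days at 28 °C in 3 dpf wild-type AB zebrafish, then test polypeptide in water for 2 days at 28 °C at 250, 500 or 1000 μg/mL; later rounds used 1000 μg/mL. Prednisone control at 15.0 μg/mL. Intestinal lumen area imaged in 10 fish/group, mean±SE.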

[2] = tested on: TNBS-induced model of acute inflammatory bowel disease (UC) in SD rat; assay: TNBS-induced model of acute inflammatory bowel disease (UC) in SD rat; assay type: in vivo; conditions: for Body weight, Grouping day (D 0, g): D 0, before treatment; for Body weight, Grouping day (D 0, g) / DAI score, Experimental day 1 (D 1, point) / DAI score, Experimental day 3 (D 3, point) / Body weight, Experimental day 5 (D 5, g): enema once a day; for Body weight, Grouping day (D 0, g) / DAI score AUC(0-14 d) (D 0-D 14) / Weight change range (D 0-D 14, %) / DAI score, Experimental day 1 (D 1, point) / DAI score, Experimental day 3 (D 3, point) / Body weight, Experimental day 5 (D 5, g) / Body weight, Experimental endpoint (D 14, g) / DAI score, Experimental endpoint (D 14, point) / Colon length (cm) / Colon ulcer and inflammation score (point) / Colon ulcer area (cm^2) / Colon weight / Colon weight/length ratio (100* g/cm) / Colonic adhesion score (point): mean ± SD
Description: In this experiment, a rat model of ulcerative colitis was established by administering trinitrobenzene sulfonic acid (TNBS) to laboratory animal male SD rats for a single enema intervention. Acute colitis in rats induced by trinitrobenzene sulfonic acid (TNBS) is an immune response induced by cytokines secreted by Th1 type cells. […] This model is simple to establish and has good reproducibility. It is an experimental animal model widely used in evaluating drugs for the treatment of inflammatory bowel disease. […] During the experimental treatment period (D1-D14), the body weight and general clinical observation indicators (including but not limited to food intake, water intake, activity level and defecation, etc.) of the animals in each experimental group were dynamically collected. At the same time, based on the relevant scoring standards for the disease activity index of ulcerative colitis, the reactivity such as the weight loss degree, stool morphology and trait, and bloody stool of the animals in each experimental group after TNBS induction were scored, and the disease activity index (DAI) of ulcerative colitis was calculated, once a day for 14 consecutive days. At the end point of the experiment, colon tissues of animals in each experimental group were collected, and the length and weight of the colon were measured and then the non-autopsy images were collected. Then the colon was cut open along the intestinal wall longitudinally and autopsy images were collected. Based on the “Criteria for Scoring Gross Morphological Manifestations of the Colon”, the gross damage with respect to colon adhesions, colon ulcers and inflammation of animals in each experimental group was observed and scored. Ulcer images were collected under a stereomicroscope and the area of colon ulcer foci was calculated, followed by routine fixation.

[3] = high dose group (compound 1: 6.0 mg/kg; compound 6: 2.8 mg/kg)
[4] = low dose group (compound 1: 3.0 mg/kg; compound 6: 1.4 mg/kg)
[5] = high dose group (compound 1: 6.0 mg/kg; compound 6: 2.8 mg/kg), enema once a day 14 days
[6] = low dose group (compound 1: 3.0 mg/kg; compound 6: 1.4 mg/kg), enema once a day 14 days
[7] = experimental endpoint, high dose group (compound 1: 6.0 mg/kg; compound 6: 2.8 mg/kg), enema once a day 14 days
[8] = experimental endpoint, low dose group (compound 1: 3.0 mg/kg; compound 6: 1.4 mg/kg), enema once a day 14 days
[9] = set treatment regimen, enema once a day 14 days, vs model control group
[10] = set treatment regimen, experimental endpoint, vs model control group

## H-KEPVPQAKPRKVAAQ-OH [Compound 1]
[1]; 250 μg/mL in water
  Intestinal lumen area (pixels, mean ± SE): 39333 ± 2095 pixels
[1]; 500 μg/mL in water
  Intestinal lumen area (pixels, mean ± SE): 26497 ± 1245 pixels
[1]; 1000 μg/mL in water
  Intestinal lumen area (pixels, mean ± SE): 26174 ± 1898 pixels
[1]; 1000 μg/mL, significance vs model control group of the same batch
  Activity in relieving intestinal lumen dilatation: *** (*** p < 0.001)
[1]; 250, 500, 1000 μg/mL, Table 4
  Intestinal lumen area compared with the model control group (in words): significant statistical differences compared with the model control group
[2]; [3]
  Body weight, Grouping day (D 0, g): 279.99 ± 10.57 g
  DAI score, Experimental day 1 (D 1, point): 3.9 ± 0.6 point
  DAI score, Experimental day 3 (D 3, point): 4.3 ± 1.8 point
  Body weight, Experimental day 5 (D 5, g): 263.90 ± 15.38 g
[2]; [4]
  Body weight, Grouping day (D 0, g): 274.40 ± 9.10 g
  DAI score, Experimental day 1 (D 1, point): 3.5 ± 1.3 point
  DAI score, Experimental day 3 (D 3, point): 4.9 ± 1.6 point
  Body weight, Experimental day 5 (D 5, g): 251.65 ± 18.30 g
[2]; [5]
  DAI score AUC(0-14 d) (D 0-D 14): 30.65 ± 2.93^####+++
  Weight change range (D 0-D 14, %): 6.97 ± 4.73 %
  Body weight, Experimental endpoint (D 14, g): 299.37 ± 14.64 g
  DAI score, Experimental endpoint (D 14, point): 0.1 ± 0.3 point
[2]; [6]
  DAI score AUC(0-14 d) (D 0-D 14): 37.65 ± 3.60
  Weight change range (D 0-D 14, %): 7.96 ± 7.32 %
  Body weight, Experimental endpoint (D 14, g): 296.07 ± 19.58 g
  DAI score, Experimental endpoint (D 14, point): 0.5 ± 0.7 point
[2]; [7]
  Colon length (cm): 16.55 ± 1.67 cm
  Colon ulcer and inflammation score (point): 1.40 ± 0.84^####++ point
  Colon ulcer area (cm^2): 2.15 ± 0.74^###+ cm^2
  Colon weight: 2.20 ± 0.28 g
  Colon weight/length ratio (100* g/cm): 13.37 ± 1.93^####+ 100* g/cm
  Colonic adhesion score (point): 0.60 ± 0.52 point
[2]; [8]
  Colon length (cm): 15.34 ± 1.99 cm
  Colon ulcer and inflammation score (point): 2.50 ± 0.85 point
  Colon ulcer area (cm^2): 3.77 ± 1.91^# cm^2
  Colon weight: 2.48 ± 0.46 g
  Colon weight/length ratio (100* g/cm): 16.40 ± 3.29^### 100* g/cm
  Colonic adhesion score (point): 1.10 ± 0.57 point
[2]; set treatment regimen
  Overall therapeutic effect in the rat model of ulcerative colitis (in words): significant therapeutic effects
[2]; [9]
  Effect on disease progression of ulcerative colitis / DAI scores (in words): significant improvement effect on the disease progression of ulcerative colitis
  Effect on weight gain inhibition / weight loss response of model animals (in words): significant effect of improving the weight gain inhibition; also recorded: significant improvement effect on the weight loss response
[2]; [10]
  Effect on colon atrophy process / colon weight/length ratio (in words): colon weight/length ratio was significantly decreased
  Effect on gross colon injury status (colonic adhesion, ulcer and inflammation) and colon ulcer area (in words): obvious therapeutic effects; also recorded: significant therapeutic effects on the gross damage manifestation of the colon
